Data reported in the NIST ThermoML archive (doi:10.1016/j.jct.2019.02.031).

Assay: xn = mol fraction of the nth substance listed
Details: 101 kPa, Liquid; for viscosity: Falling or rolling sphere viscometry; for mass density: Vibrating tube method

Cn1cc[n+](CCC[N+](C)(C)C)c1.N#C[N-]C#N.N#C[N-]C#N + CC(C)O
Details	mass density [kg/m3]	viscosity [mPa·s]
283.15 K, x1 = 0.1001	905.3	12.27
283.15 K, x1 = 0.2	978.56	31.98
283.15 K, x1 = 0.2999	1028.83	71.59
283.15 K, x1 = 0.4	1065.91	152.1
283.15 K, x1 = 0.5001	1094.18	290.4
283.15 K, x1 = 0.5998	1114.84	452
283.15 K, x1 = 0.7002	1130.38	742.9
283.15 K, x1 = 0.8001	1142.95	1216
283.15 K, x1 = 0.8985	1153.75	2301
283.15 K, x1 = 1	1162.82	4998
288.15 K, x1 = 0.1001	901.8	10.23
288.15 K, x1 = 0.2	975.32	25.55
288.15 K, x1 = 0.2999	1025.72	54.85
288.15 K, x1 = 0.4	1062.7	110.5
288.15 K, x1 = 0.5001	1091.1	204.6
288.15 K, x1 = 0.5998	1111.98	303.9
288.15 K, x1 = 0.7002	1127.66	493.5
288.15 K, x1 = 0.8001	1140.22	749.8
288.15 K, x1 = 0.8985	1150.85	1346
288.15 K, x1 = 1	1159.76	2736
293.15 K, x1 = 0.1001	898.28	8.914
293.15 K, x1 = 0.2	972.09	21.4
293.15 K, x1 = 0.2999	1022.6	44.54
293.15 K, x1 = 0.4	1059.76	85.03
293.15 K, x1 = 0.5001	1088.04	153
293.15 K, x1 = 0.5998	1108.93	219.1
293.15 K, x1 = 0.7002	1124.71	341.4
293.15 K, x1 = 0.8001	1137.27	498.6
293.15 K, x1 = 0.8985	1147.89	843.4
293.15 K, x1 = 1	1156.74	1608
298.15 K, x1 = 0.1001	894.74	7.619
298.15 K, x1 = 0.2	968.65	18.02
298.15 K, x1 = 0.2999	1019.48	35.75
298.15 K, x1 = 0.4	1056.42	66.38
298.15 K, x1 = 0.5001	1084.68	116.5
298.15 K, x1 = 0.5998	1105.58	163
298.15 K, x1 = 0.7002	1121.85	245.1
298.15 K, x1 = 0.8001	1134.38	342.8
298.15 K, x1 = 0.8985	1144.95	558.1
298.15 K, x1 = 1	1153.73	1007
303.15 K, x1 = 0.1001	891.18	6.585
303.15 K, x1 = 0.2	965.32	15.28
303.15 K, x1 = 0.2999	1016.38	29.22
303.15 K, x1 = 0.4	1053.15	53.45
303.15 K, x1 = 0.5001	1081.45	90.62
303.15 K, x1 = 0.5998	1102.88	124.3
303.15 K, x1 = 0.7002	1118.91	181.3
303.15 K, x1 = 0.8001	1131.5	245.7
303.15 K, x1 = 0.8985	1141.97	387.2
303.15 K, x1 = 1	1150.76	662.9
308.15 K, x1 = 0.1001	887.61	5.755
308.15 K, x1 = 0.2	962.09	13.11
308.15 K, x1 = 0.2999	1013.25	24.31
308.15 K, x1 = 0.4	1050.12	43.61
308.15 K, x1 = 0.5001	1078.35	71.82
308.15 K, x1 = 0.5998	1099.87	97.07
308.15 K, x1 = 0.7002	1116.01	137.7
308.15 K, x1 = 0.8001	1128.64	182
308.15 K, x1 = 0.8985	1139.04	278.9
308.15 K, x1 = 1	1147.8	455.4
313.15 K, x1 = 0.1001	884.01	5.069
313.15 K, x1 = 0.2	959.16	11.51
313.15 K, x1 = 0.2999	1009.82	20.53
313.15 K, x1 = 0.4	1046.89	36.31
313.15 K, x1 = 0.5001	1075.26	58.15
313.15 K, x1 = 0.5998	1096.85	77.62
313.15 K, x1 = 0.7002	1113.12	107.2
313.15 K, x1 = 0.8001	1125.89	138.5
313.15 K, x1 = 0.8985	1136.19	207.8
313.15 K, x1 = 1	1144.89	324.6
318.15 K, x1 = 0.1001	880.4	4.515
318.15 K, x1 = 0.2	955.64	10.08
318.15 K, x1 = 0.2999	1006.35	17.42
318.15 K, x1 = 0.4	1043.68	30.62
318.15 K, x1 = 0.5001	1072.32	48.57
318.15 K, x1 = 0.5998	1094.09	63.07
318.15 K, x1 = 0.7002	1110.26	85.59
318.15 K, x1 = 0.8001	1123.09	109
318.15 K, x1 = 0.8985	1133.33	160.3
318.15 K, x1 = 1	1142	239.7
323.15 K, x1 = 0.1001	876.76	4.052
323.15 K, x1 = 0.2	952.12	8.828
323.15 K, x1 = 0.2999	1002.86	15.18
323.15 K, x1 = 0.4	1040.46	26.11
323.15 K, x1 = 0.5001	1069.5	40.73
323.15 K, x1 = 0.5998	1091.18	52.16
323.15 K, x1 = 0.7002	1107.31	70.03
323.15 K, x1 = 0.8001	1120.31	86.93
323.15 K, x1 = 0.8985	1130.45	125.4
323.15 K, x1 = 1	1139.11	181.2
328.15 K, x1 = 0.1001	873.09	3.672
328.15 K, x1 = 0.2	948.69	7.836
328.15 K, x1 = 0.2999	1000.05	13.38
328.15 K, x1 = 0.4	1037.56	22.57
328.15 K, x1 = 0.5001	1066.62	34.87
328.15 K, x1 = 0.5998	1088.47	45.82
328.15 K, x1 = 0.7002	1104.35	58.38
328.15 K, x1 = 0.8001	1117.52	71.22
328.15 K, x1 = 0.8985	1127.59	101.4
328.15 K, x1 = 1	1136.24	141.1
333.15 K, x1 = 0.1001	869.4	3.36
333.15 K, x1 = 0.2	945.77	6.989
333.15 K, x1 = 0.2999	996.95	11.94
333.15 K, x1 = 0.4	1034.62	19.89
333.15 K, x1 = 0.5001	1063.89	29.99
333.15 K, x1 = 0.5998	1085.59	39.36
333.15 K, x1 = 0.7002	1101.65	49.32
333.15 K, x1 = 0.8001	1114.82	59.34
333.15 K, x1 = 0.8985	1124.75	83.14
333.15 K, x1 = 1	1133.4	111.9
